# In patent publication US20250170155A1, “NUCLEOSIDE DERIVATIVES AND PRODRUGS THEREOF HAVING VIRAL GROWTH INHIBITORY ACTION” (Shionogi & Co., Ltd., priority 2021, published 2025):
# Legend:
# [1] = test system: Vero E6/TMPRSS2 cells; test: Cytotoxic activity evaluation, Vero E6/TMPRSS2 cells; assay type: cell-based; conditions: read-out: SARS-CoV-2 test CC50 (50% cell proliferation inhibitory concentration), no virus, 3 days
# Experimental: (§1) <Operation Procedure (Cytotoxic Activity Evaluation)>
# A 3- to 5-fold serial dilution series of test substances was prepared in DMSO, diluted with 2% FBS/MEM so that the concentration of DMSO was 2%, and dispensed into a 96 well plate (50 μL/well, DMSO final concentration 0.5%). • Dilution and dispensing of cells
# The cells prepared to an appropriate number were seeded at 100 μL/well to the plate into which the test substance was dispensed. Thereafter, the cells were cultured in a CO2 incubator at 37° C. for 3 days. • Dispensing of CellTiter-Glo (registered trademark) 2.0 Reagent
# Same as those described in the section for evaluation of antiviral activity • Measurement of luminescence intensity
# (§2) Same as those described in the section for evaluation of antiviral activity
# Excel, TIBCO Spotfire, or a program having equivalent calculation processing capability based on the following calculation formula.
# [2] = test system: influenza virus (A/WSN/33 (H1N1) strain); test: CPE suppression effect confirmation test (influenza virus, RPMI 2650 cells), antiviral activity; assay type: cell-based; conditions: read-out: Influenza EC50 (50% CPE inhibitory concentration), A/WSN/33 (H1N1), 3 to 6 days
# [3] = test system: SARS-CoV-2 (hCoV-19/Japan/TY/WK-521/2020 strain); test: CPE suppression effect confirmation test (SARS-CoV-2, Vero E6/TMPRSS2 cells), antiviral activity; assay type: cell-based; conditions: read-out: SARS-CoV-2 EC50 (50% CPE inhibitory concentration), 3 days culture
# [4] = test system: RPMI 2650 cells; test: Cytotoxic activity evaluation, RPMI 2650 cells; assay type: cell-based; conditions: read-out: Influenza test CC50 (50% cell proliferation inhibitory concentration), no virus, 3 to 6 days
# Experimental: as §1
# On the day before the compound treatment, cells prepared to an appropriate number were seeded in a 96 well plate at 100 μL/well. Thereafter, the cells were cultured in a CO2 incubator at 37° C. • Preparation of 2 μg/mL trypsin/0.5% BSA/MEM
# Same as those described in the section for evaluation of antiviral activity • Dilution and dispensing of test substance
# A 3- to 5-fold serial dilution series of test substances was prepared in DMSO in advance, and diluted with 2 μg/mL trypsin/0.5% BSA/MEM so that the final concentration of DMSO was 0.5% (100 to 200 μL/well). The cells were washed with MEM, and then cultured in a test substance-added medium for 3 to 6 days. Double measurement was performed for each drug. • Dispensing of resazurin solution
# Same as those described in the section for evaluation of antiviral activity • Measurement of fluorescence intensity
# as §2
# [formula] [formula] • Calculation of Selectivity Index (SI)
# [5] = Lung distribution test; assay type: in vivo; conditions: SD rats, 8 hours after oral administration (25 mg/kg); for concentration at 8 h: rat, read-out: Prodrug form concentration (lung)
# Experimental: Test Example 5: Lung Distribution Test
# Materials and methods for experiments • (1) Animals used: SD rats are used. • (2) Rearing conditions: the SD rats are allowed to freely take solid feed and sterilized tap water. • (3) Dose and grouping setting: a given dose is orally administered. Grouping is set as below.
# Oral administration: 1 to 100 mg/kg (n=2 to 3) • (4) The test sample is orally administered in a form of solution or suspension. • (5) Administration method: the test sample is forcedly administered into the stomach through an oral probe for the oral administration. • (6) Evaluation items: Blood and lung are collected, and the concentrations of the compound of the present invention in plasma and lung are measured using LC/MS/MS.
# Lung concentrations of Compound I-057 as an active form and Compound I-077 as a prodrug form thereof 8 hours after they were orally administered (25 mg/kg) are shown below.
# In addition, lung concentrations of other prodrug forms 8 hours after they were orally administered (25 mg/kg) are shown below.
compound,measurement,setting,value
CC(C)(C)OC(=O)N1[C@H](CO)[C@@H](O)[C@@H](O)[C@@H]1c1cc(N)c2c(N)ncnn12 [Compound I-024],CC50,[1],189 µM
same,EC50,[2],47.9 µM
same,EC50,[3],49.3 µM
same,CC50,[4],310 µM
CCC(CC)C(=O)OC[C@H]1N[C@@H](c2cc(C(N)=O)c3c(N)ncnn23)[C@H](O)[C@@H]1O [Compound I-054],Active form concentration (lung),[5],6480 ng/g
CC(C)(C)CC(=O)OC[C@H]1N[C@@H](c2cc(C(N)=O)c3c(N)ncnn23)[C@H](O)[C@@H]1O [Compound I-058],concentration at 8 h,[5],12.7 ng/g
CCC(C)(C)C(=O)OC[C@H]1N[C@@H](c2cc(C(N)=O)c3c(N)ncnn23)[C@H](O)[C@@H]1O [Compound I-063],concentration at 8 h,[5],3.85 ng/g
CC(C)(C(=O)OC[C@H]1N[C@@H](c2cc(C(N)=O)c3c(N)ncnn23)[C@H](O)[C@@H]1O)c1ccccc1 [Compound I-072],concentration at 8 h,[5],6.41 ng/g
